Values of other authors in patent publication US20050272649A1, “Conjoint administration of morphogens and ACE inhibitors in treatment of chronic renal failure” (priority 2002, published 2005).
Entries after “also recorded” stand apart in the source; their conditions may differ. Like-named read-outs stand apart in the source and are kept apart here.

Assays:
AT1 receptor = biological target: T1, AT1 receptor (Homo sapiens, UniProt P30556); details: cited from earlier work
T1 sequence (P30556 1-359): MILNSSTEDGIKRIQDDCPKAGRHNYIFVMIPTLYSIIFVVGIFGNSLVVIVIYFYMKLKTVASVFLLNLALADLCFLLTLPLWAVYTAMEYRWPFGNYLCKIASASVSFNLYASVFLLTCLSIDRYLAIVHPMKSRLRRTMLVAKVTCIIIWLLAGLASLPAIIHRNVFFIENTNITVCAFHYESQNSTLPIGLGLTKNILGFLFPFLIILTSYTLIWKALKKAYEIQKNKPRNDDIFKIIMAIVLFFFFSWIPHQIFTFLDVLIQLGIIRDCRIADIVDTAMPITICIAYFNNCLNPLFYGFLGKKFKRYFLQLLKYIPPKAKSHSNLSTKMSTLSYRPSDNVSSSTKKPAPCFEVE

[1] = oral administration; cited from earlier work
hypertension = details: cited from earlier work; for safety / tolerability (in words): clinical studies
[2] = comparator and dosages as stated in the sentence
[3] = olmesartan medoxomil 20 mg starting dose

SMILES	oral absorption / bioavailability / pharmacokinetics (in words) [1]	safety / tolerability (in words) (hypertension)	antihypertensive efficacy compared (in words) (hypertension; [2])	other results
CCOc1nc2cccc(C(=O)O)c2n1Cc1ccc(-c2ccccc2-c2nnn[nH]2)cc1 [Candesartan]	poorly absorbed after oral administration	both safe and well tolerated	Comparable reductions of diastolic blood pressure	affinity for the AT1 receptor relative to affinity for the AT2 receptor (AT1 receptor): more than 10,000 times; diastolic blood pressure reduction, adjusted mean more than the 50-mg losartan dosage (hypertension; candesartan 16 mg per day): 3.7 mm Hg
CCCCC1=NC2(CCCC2)C(=O)N1Cc1ccc(-c2ccccc2-c2nnn[nH]2)cc1 [Irbesartan]	–	safe and effective	as effective as enalapril and atenolol in reducing blood pressure	affinity for the AT1 receptor relative to affinity for the AT2 receptor (AT1 receptor): more than 8,500 times; antihypertensive efficacy compared (in words) (hypertension; comparator and dosages as stated in the sentence, listed as irbesartan): significantly greater
CCCCc1nc(Cl)c(CO)n1Cc1ccc(-c2ccccc2-c2nn[nH]n2)cc1 [Losartan]	–	well tolerated	–	antihypertensive efficacy compared (in words) (hypertension; comparator and dosages): as efficacious as enalapril and nifedipine for lowering blood pressure; also recorded: no significant difference in antihypertensive efficacy; duration of activity for a dose (hypertension; losartan): 24 h
CCCc1nc2c(C)cc(-c3nc4ccccc4n3C)cc2n1Cc1ccc(-c2ccccc2C(=O)O)cc1 [Telmisartan]	Nonlinear pharmacokinetics	side effect profile similar to that of placebo; also recorded: no rebound hypertension or first-dose orthostatic effect	slightly greater antihypertensive effect than enalapril	–
CCCCC(=O)N(Cc1ccc(-c2ccccc2-c2nnn[nH]2)cc1)[C@H](C(=O)O)C(C)C [Valsartan]	–	both safe and effective	as effective as ACE inhibitors enalapril, lisinopril and amlodipine	–
CCOc1nc2cccc(C(=O)OC(C)OC(=O)OC3CCCCC3)c2n1Cc1ccc(-c2ccccc2-c2nnn[nH]2)cc1 (stereo not drawn) [candesartan cilexetil]	improves bioavailability; also recorded: conversion to the active compound occurs rapidly and completely	–	–	–
CCCc1nc(C(C)(C)O)c(C(=O)OCc2oc(=O)oc2C)n1Cc1ccc(-c2ccccc2-c2nnn[nH]2)cc1 [olmesartan medoxomil]	–	–	superior to losartan	reduction of diastolic pressure (average) (hypertension; [3]): 12 mm Hg; reduction of systolic pressure (average) (hypertension; [3]): 15 mm Hg
